The values that follow come from patent US7754463B2, “Inhibitors of USP1 Deubiquitinating Enzyme Complex” (Dana-Farber Cancer Institute, priority 2006, dated 2010).

The subject of one series is UAF1. Briefly: UAF1 protein level after blocking transcription in 293T cells. The format is cell-based, human. As to conditions: 5 μg/ml. The protocol: (§1) A) HeLa cells expressing exogenous Flag-HA-USP1 were irradiated with 50 J/m^2 and samples were taken at the indicated times. Flag-HA-USP1 was immunoprecipitated using anti-Flag antibodies and the immunoprecipitates were analyzed by immunoblotting using the indicated antibodies with the exception of Flag-HA-USP1, which was detected using the mouse monoclonal 12CA5 antibody. B) HeLa cells were UV irradiated with 50 J/m^2 (UVC) and samples were taken at the indicated times. Protein samples were analyzed by immunoblotting using the indicated antibodies. C) 293T cells were UV irradiated with 100 J/m^2 (UVC) and samples were taken at the indicated times. Total RNA was prepared an analyzed by Northern blot analysis using the indicated probes. D) Quantification of the USP1 and total RNA intensities from C. E) 293T cells were treated with 5 μg/ml Actinomycin D and samples were taken at the indicated times. Protein samples were analyzed by immunoblotting using the indicated antibodies.
(§2) UAF1 protein levels were not affected by UV irradiation (FIG. 6A and FIG. 6B). It was speculated that one regulatory event that may reduce USP1 activity after DNA damage may be transcriptional down-regulation of the USP1 gene. To test this hypothesis, USP1 mRNA levels were measured in 293T cells after UV irradiation. […]

Series [1] deals with USP1. Nature of the series: USP1 protein level after blocking transcription in 293T cells. In kind it is cell-based, human. Conditions: 5 μg/ml. As to the method: as §1, §2
Another series concerns USP1 mRNA. Nature of the series: USP1 mRNA level after transcription inhibition (Northern blot). Conditions: Actinomycin D, UV or both; data not shown. In kind it is cell-based, human. The protocol: Northern blot analysis was performed as described using the 394 nt PstI-EcoRV fragment of the USP1 cDNA (Cohn, M. A., Kramerov, D., Hulgaard, E. F., and Lukanidin, E. M. (1997). The differentiation antigen Ly-6E.1 is expressed in mouse metastatic tumor cell lines. FEBS Lett 403, 181-185).
UAF1 protein levels were not affected by UV irradiation (FIG. 6A and FIG. 6B). It was speculated that one regulatory event that may reduce USP1 activity after DNA damage may be transcriptional down-regulation of the USP1 gene. To test this hypothesis, USP1 mRNA levels were measured in 293T cells after UV irradiation. A rapid decrease of the USP1 mRNA (FIG. 6C) was observed, with kinetics reflecting the decrease of USP1 protein (FIG. 6B). […] To test whether active mRNA degradation also play a role in addition to transcriptional regulation, transcription was inhibited by Actinomycin D, an effective inhibitor of RNA polymerase II, cells were irradiated with UV, or both treatments were combined. […] Importantly, the level of full length USP1 decreased with kinetics similar to those in cells treated with UV irradiation (FIG. 6B).

Series [2] addresses T1, USP1 (Homo sapiens, UniProt O94782, G670A/G671A).
T1 construct: His tag (N); made in house; host or cells: Sf9 insect cells
T1 sequence (O94782 1-785 G670A/G671A): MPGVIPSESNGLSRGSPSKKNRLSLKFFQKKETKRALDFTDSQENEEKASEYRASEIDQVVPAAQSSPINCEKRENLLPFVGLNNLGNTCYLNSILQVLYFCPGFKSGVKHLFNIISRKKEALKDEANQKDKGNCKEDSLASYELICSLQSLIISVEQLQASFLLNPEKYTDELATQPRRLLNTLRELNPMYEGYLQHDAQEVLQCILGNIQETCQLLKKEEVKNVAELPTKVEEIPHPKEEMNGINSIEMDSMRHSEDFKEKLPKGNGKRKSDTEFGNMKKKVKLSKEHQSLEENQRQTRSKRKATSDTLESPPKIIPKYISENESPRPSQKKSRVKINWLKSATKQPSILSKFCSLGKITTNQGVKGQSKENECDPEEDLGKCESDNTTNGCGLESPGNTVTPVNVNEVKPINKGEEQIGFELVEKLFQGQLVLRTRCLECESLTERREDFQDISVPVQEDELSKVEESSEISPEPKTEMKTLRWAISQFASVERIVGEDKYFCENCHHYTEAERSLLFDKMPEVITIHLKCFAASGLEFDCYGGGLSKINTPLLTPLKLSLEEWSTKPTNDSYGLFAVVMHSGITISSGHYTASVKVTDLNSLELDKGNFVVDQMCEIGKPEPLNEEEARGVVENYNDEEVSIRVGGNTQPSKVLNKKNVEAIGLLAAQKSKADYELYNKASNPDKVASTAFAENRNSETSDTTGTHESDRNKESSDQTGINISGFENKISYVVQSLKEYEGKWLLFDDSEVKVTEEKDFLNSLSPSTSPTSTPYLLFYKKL
Nature of the series: Activation of USP1 enzymatic activity in vitro by UAF1 wild type or mutant protein. In kind it is biochemical. As to conditions: all proteins 10 nM, Ub-AMC. As to the method: A) Scheme of wild type UAF1 and deletion mutants thereof. B) Flag-tagged deletion mutants of UAF1 were transiently expressed in 293T cells. The Flag-tagged proteins were immunoprecipitated from cell lysates using anti-Flag antibodies. The immunoprecipitates were analyzed using the indicated antibodies. C) A mutant protein of UAF1 where the second WD40 repeat has been deleted (UAF1-ΔWD2) fails to activate USP1 enzymatic activity in vitro. Strep-tagged UAF1-ΔWD2 was expressed and purified from Sf9 insect cells. The enzymatic activity of the USP1 enzyme was monitored as UAF1 wild type or mutant proteins was added to the reaction. The concentrations of all proteins were 10 nM.
The above experiments were performed using a preformed USP1/UAF1 complex. To gain further insight into the dynamics of USP1/UAF1 complex formation and USP1 activation, the kinetics of UAF1 binding and activation of USP1 were investigated. An in vitro enzymatic reaction of USP1 was set up using Ubiquitin-AMC as a substrate. Ten minutes into the reaction, during the stable and low substrate-turnover, either buffer or purified UAF1 protein was added in an equimolar amount to USP1. […] Given the affinity between the two proteins, it was predicted that as USP1 is synthesized in the cell, it rapidly forms a complex with UAF1. If UAF1 is not available, the protein is destabilized and degraded. […]

Another series relates to Ubiquitin-AMC. Briefly: In vitro enzymatic activity and kinetics of purified USP1, UAF1 and USP1/UAF1 with Ubiquitin-AMC. In kind it is biochemical, human. As to the method:
A) Coomassie blue stain of purified USP1 and UAF1 proteins, expressed either alone of simultaneously as a protein complex in Sf9 cells. B) The in vitro enzymatic activity of USP1, UAF1 or the USP1/UAF1 complex was assayed using Ub-AMC as a substrate. The concentration of each protein was 10 nM. C) Calculation of slopes of the curves in B. The activity of USP1 was arbitrarily set to a value of 1. Relative values for UAF1 and USP1/UAF1 were −0.25 and 36.25, respectively. The slightly negative value for UAF1 is a result of photo bleaching during the experiment. D) UAF1 activates USP1 instantly upon binding in vitro. The enzymatic activity of the USP1 enzyme was monitored as UAF1 was added to the reaction. The concentrations of both USP1 and UAF1 were 2 nM. E) Km and kcat values of the USP1 enzyme and the USP1/UAF1 complex were determined by measuring the substrate conversion at constant enzyme concentration (20 nM for USP1 and 2 nM for the USP1/UAF1 complex) and various substrate concentrations (final concentrations of Ub-AMC of 0.6 μM, 0.75 μM, 1 μM, 1.5 μM and 3 μM for USP1; and 0.42 μM, 0.525 μM, 0.7 μM, 1.05 μM, 2.1 μM […] for the USP1/UAF1 complex). Km and kcat values were calculated by plotting the obtained conversion values in a double-reciprocal Lineweaver-Burk plot. Standard deviation of Km and kcat were calculated from 5-6 independent repeats of the above measurements and are shown in brackets in the table.
Transcription/translation in rabbit reticulocyte was performed according to manufactures recommendations with the exception that the reactions were performed at 30° C. (Promega). In vitro enzymatic assays in the presence of 5 μM Ubiquitin-VS (Ubiquitin-Vinyl Sulfone; U-202; Boston Biochem) were performed 30° C. In vitro enzymatic assays using Ubiquitin-AMC (Ubiquitin-7-amido-4-methylcoumarin; U-550; Boston Biochem) were performed in 50-100 μl reaction buffer (20 mM HEPES-KOH pH 7.8, 20 mM NaCl, 0.1 mg/ml Ovalbumin (A7641; Sigma), 0.5 mM EDTA and 10 mM DTT) at 37° C. Fluorescence was monitored in a FluoStar Galaxy Fluorometer (BMG Labtech Inc.). In vitro deubiquitination reactions of Ub-FANCD2 were performed in 10 μl reaction buffer (90 mM Tris-HCl pH 8.0, 50 mM NaCl, 0.03% NP-40, 4 mg/ml BSA and 2 mM DTT) for 2 h at 30° C.
The enzymatic activity of the purified proteins was assayed using fluorogenic Ubiquitin-AMC as a substrate. […] The activity of the USP1/UAF1 heterodimer was about 30-fold higher than the activity of USP1 alone (FIG. 3C).
In order to better understand the enzymatic consequences of the complex-formation between UAF1 and USP1, the kinetic parameters of the USP1 enzyme alone and the UAF1/USP1 complex were determined. […] This mechanism of activation contrasts with that of another deubiquitinating enzyme, Uch37, which is involved in proteasome-mediated protein degradation. Uch37 is activated by the Adrm1 protein. […] Nat Cell Biol 8, 994-1002).

Starred links: 1 amine or outer side, 2 acyl side, 3 side chain; linkers in the order of their positions; H or OH if unused. Positions of bridges follow the written chain, without caps; N, C: chain ends. Non-standard residues stand in square brackets, D forms with d. Residues, ends and D or L forms follow the SMILES beside them. Chains are numbered I, II in the order given. Actinocin(9to1) = Cc1c2oc3c(C)ccc(C(=O)[*:1])c3nc-2c(C(=O)[*:2])c(N)c1=O; NMeV = CN[C@H](C(=O)O)C(C)C; Sar = CNCC(=O)O

Turning to `Cc1c2oc3c(C)ccc(C(=O)N[C@@H]4C(=O)N[C@H](C(C)C)C(=O)N5CCC[C@H]5C(=O)N(C)CC(=O)N(C)[C@@H](C(C)C)C(=O)O[C@@H]4C)c3nc-2c(C(=O)N[C@@H]2C(=O)N[C@H](C(C)C)C(=O)N3CCC[C@H]3C(=O)N(C)CC(=O)N(C)[C@@H](C(C)C)C(=O)O[C@@H]2C)c(N)c1=O` [Actinomycin D] (I: T[dV]P[Sar][NMeV] / II: T[dV]P[Sar][NMeV]; ester I:1-I:C, II:1-II:C; linker I:N-II:N via Actinocin(9to1)), the “level of UAF1 protein” value in the series on UAF1 was “remained unchanged”. Further, the “USP1 protein levels over time” value with USP1 [1] is “decrease of USP1 protein levels over time”. Moreover, the “USP1 mRNA level” value in the series with USP1 mRNA is given as “decreased with similar kinetics in all three cases”.

Consider “UAF1: purified USP1 Associated Factor 1, WD40 repeat protein (SEQ ID NO:4)”, for which, in the series with USP1 [2], the “stimulation of USP1 enzymatic activity” value is “able to stimulate the enzymatic activity of USP1”. Besides, in the series on Ubiquitin-AMC (10 nM each protein), the “relative activity (slope of Ub-AMC curve), USP1 set to 1” value is on record as −0.25. Also, the “deubiquitinating activity on Ubiquitin-AMC” value in the series with Ubiquitin-AMC (purified protein alone) is “no detectable deubiquitinating activity”.
